Experimental data reported in patent publication US7691842B2, “Tricyclic 6-alkylidene-penems as β-lactamase inhibitors” (Wyeth LLC, priority 2002, dated 2010).
Where a name gives a salt, the structure may show the parent alone. Read-outs that look alike come from different tables or passages of the source.

Legend:
[1] = biological target: class A β-lactamase TEM-1 (Escherichia coli, UniProt P62593); assay: β-Lactamase inhibition, IC50 determination (nitrocefin, spectrophotometric); format: biochemical, E. Coli
Chain of class A β-lactamase TEM-1 (P62593 24-286 limits assumed): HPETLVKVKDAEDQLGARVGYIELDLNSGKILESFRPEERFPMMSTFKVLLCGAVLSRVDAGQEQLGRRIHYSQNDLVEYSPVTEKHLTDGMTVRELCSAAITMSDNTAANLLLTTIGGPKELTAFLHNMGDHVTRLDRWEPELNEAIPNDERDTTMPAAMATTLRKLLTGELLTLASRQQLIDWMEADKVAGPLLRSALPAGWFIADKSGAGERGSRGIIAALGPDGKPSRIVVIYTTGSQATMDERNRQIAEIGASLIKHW
Procedure: (§1) IC50 Determination for the Penem Inhibitor
(§2) β-Lactamase inhibitory activity of the penem inhibitors was determined spectrophotometrically as described by Bush et al., [Bush, K., Macalintal, C., Rasmussen, B. A., Lee, V. and Yang, Y. Antimicrobial Agents and Chemotherapy 1993, 37, 851]. Homogeneously purified class A β-lactamases TEM-1 from E. Coli and Imi-1 from Enterobacter cloacae, class B enzyme CcrA from Bacteroides fragilis and class C enzyme AmpC from Enterobacter cloaca were employed in the assay. The enzyme concentrations for TEM-1, Imi-1, CcrA and AmpC were 4.3, 7.1, 1.2 and 2.1 nM, respectively. A wide range of inhibitor concentrations were prepared in 50 mM PO4, pH 7.0 to include the possible IC50 values. The substrate used to initiate the enzyme reaction was nitrocefin at 50 μg/ml in the same buffer as the inhibitor. Initially the enzyme and inhibitor (20 μl each) were preincubated for 10 minutes at 25° C. prior to the addition of 160 μl volume of nitrocefin. Initial rates of hydrolysis were monitored for 5 minutes at 495 nm using a Molecular Devices Spectra Max 250 with kinetic protocol of SoftMax Program. Readings from the Spectra Max 250 were exported and transferred to Microsoft Excel. The percent of inhibition of each inhibitor concentration was calculated based on the control enzyme activity. The inhibitor concentration that caused a 50% reduction in the enzymatic activity (IC50) was determined graphically.

[2] = biological target: class A β-lactamase Imi-1 (Enterobacter cloacae, UniProt Q46991); assay: as above; format: biochemical
Chain of class A β-lactamase Imi-1 (Q46991 entry or part of it): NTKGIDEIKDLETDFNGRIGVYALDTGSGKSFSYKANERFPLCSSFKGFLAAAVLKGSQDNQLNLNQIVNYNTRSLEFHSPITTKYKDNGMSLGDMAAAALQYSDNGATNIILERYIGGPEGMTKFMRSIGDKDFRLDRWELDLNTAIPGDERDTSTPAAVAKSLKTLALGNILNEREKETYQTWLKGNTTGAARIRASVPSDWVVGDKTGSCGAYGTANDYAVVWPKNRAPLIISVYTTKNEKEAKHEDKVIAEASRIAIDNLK
Procedure: as §1, §2

class B enzyme CcrA = class B enzyme CcrA (Bacteroides fragilis, UniProt P25910); assay: as above; format: biochemical; settings: enzyme 1.2 nM; 10 min preincubation at 25° C.; nitrocefin 50 μg/ml; 50 mM PO4, pH 7.0; read-out: IC50 (nM) Class B Ccr
Chain of class B enzyme CcrA (P25910 19-249): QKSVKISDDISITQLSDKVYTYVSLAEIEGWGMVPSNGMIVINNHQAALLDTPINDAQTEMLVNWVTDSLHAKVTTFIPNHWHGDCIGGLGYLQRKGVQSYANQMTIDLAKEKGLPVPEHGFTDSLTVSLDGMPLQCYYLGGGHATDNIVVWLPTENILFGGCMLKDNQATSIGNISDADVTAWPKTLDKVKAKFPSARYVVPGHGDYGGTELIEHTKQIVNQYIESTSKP
Procedure: as §1, §2

class C enzyme AmpC = class C enzyme AmpC (Enterobacter cloacae, UniProt P05364); assay: biochemical; parameters: species or system Enterobacter cloaca
Chain of class C enzyme AmpC (P05364 21-381): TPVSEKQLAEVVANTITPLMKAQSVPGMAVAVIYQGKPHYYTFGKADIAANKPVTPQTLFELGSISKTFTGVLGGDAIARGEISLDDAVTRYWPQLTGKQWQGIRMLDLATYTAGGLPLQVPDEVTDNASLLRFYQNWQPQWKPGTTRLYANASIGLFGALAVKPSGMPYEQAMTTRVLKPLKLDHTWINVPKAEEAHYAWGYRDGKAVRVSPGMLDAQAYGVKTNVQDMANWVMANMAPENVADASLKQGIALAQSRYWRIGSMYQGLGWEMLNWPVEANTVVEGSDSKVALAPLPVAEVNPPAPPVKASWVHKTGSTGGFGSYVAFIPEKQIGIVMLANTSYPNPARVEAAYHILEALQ
Procedure: as §1, §2

E. Cloacae GC1477 (Ampc) = assay: Antimicrobial susceptibility testing, microbroth dilution MIC of piperacillin + inhibitor; format: cell-based; settings: piperacillin combined with constant 4 μg/ml inhibitor; Inc: 35° C. for 18 hours
Procedure: (§3) Antimicrobial susceptibility testing. The in vitro activities of the antibiotics were determined by the microbroth dilution method as recommended by the National Committee for Clinical Laboratory Standards (NCCLS). (NCCLS. 2000. Methods for Dilution Antimicrobial Susceptibility Tests for Bacteria That Grow Aerobically; Approved Standards: M7-A5, vol. 19. National Committee for Clinical Laboratory Standards, Villanova, Pa.). Mueller-Hinton it broth (MHBII)(BBL Cockeysville, Md.), was used for the testing procedure. Microtiter plates containing 50 μl per well of two-fold serial dilutions of piperacillin combined with a constant amount (4 μg/ml) of a B-lactamase inhibitor (final concentration) were inoculated with 50 μl of inoculum to yield the appropriate density (10^5 CFU/ml) in 100 μl. The plates were incubated for 18-22 hours at 35° C. in ambient air.

E. Coli GC2203 = assay: as above; format: cell-based; settings: piperacillin combined with constant 4 μg/ml inhibitor; Inc: 35° C. for 18 hours
Procedure: as §3

E. Coli GC2844 = assay: as above; format: cell-based; settings: piperacillin combined with constant 4 μg/ml inhibitor; Inc: 35° C. for 18 hours
Procedure: as §3

E. Coli GC2847 (TEM-1) = assay: as above; format: cell-based; settings: piperacillin combined with constant 4 μg/ml inhibitor; Inc: 35° C. for 18 hours
Procedure: as §3

E. Coli GC2894 (Ampc) = assay: as above; format: cell-based; settings: piperacillin combined with constant 4 μg/ml inhibitor; Inc: 35° C. for 18 hours
Procedure: as §3

E. Coli GC2920 (IRT-2) = assay: as above; format: cell-based; settings: piperacillin combined with constant 4 μg/ml inhibitor; Inc: 35° C. for 18 hours
Procedure: as §3

[3] = system: P. aeruginos GC1764 (Ampc); assay: as above; format: cell-based; settings: piperacillin combined with constant 4 μg/ml inhibitor; Inc: 35° C. for 18 hours
Procedure: as §3

[4] = system: S. Marcescens GC1781 Sme-1 + Ampc; assay: as above; format: cell-based; settings: piperacillin combined with constant 4 μg/ml inhibitor; Inc: 35° C. for 18 hours
Procedure: as §3

[5] = enzyme 4.3 nM, 10 min preincubation at 25° C., nitrocefin 50 μg/ml, 50 mM PO4, pH 7.0, read-out: IC50 (nM) Class A TEM-1
[6] = enzyme 7.1 nM, 10 min preincubation at 25° C., nitrocefin 50 μg/ml, 50 mM PO4, pH 7.0, read-out: IC50 (nM) Class A Imi
[7] = enzyme 2.1 nM, 10 min preincubation at 25° C., nitrocefin 50 μg/ml, 50 mM PO4, pH 7.0, read-out: IC50 (nM) Class C AmpC

Structure (SMILES)	IC50 [1] [nM]	IC50 [2] [nM]	IC50 (class B enzyme CcrA) [nM]	IC50 (class C enzyme AmpC) [nM]	Minimal Inhibitory Concentration E. Cloacae GC1477 (Ampc) (E. Cloacae GC1477 (Ampc)) [µg/mL]	Minimal Inhibitory Concentration E. Coli GC2203 (E. Coli GC2203) [µg/mL]	Minimal Inhibitory Concentration E. Coli GC2844 (E. Coli GC2844) [µg/mL]	Minimal Inhibitory Concentration E. Coli GC2847 (TEM-1) (E. Coli GC2847 (TEM-1)) [µg/mL]	Minimal Inhibitory Concentration E. Coli GC2894 (Ampc) (E. Coli GC2894 (Ampc)) [µg/mL]	Minimal Inhibitory Concentration E. Coli GC2920 (IRT-2) (E. Coli GC2920 (IRT-2)) [µg/mL]	Minimal Inhibitory Concentration P. aeruginos GC1764 (Ampc) [3] [µg/mL]	Minimal Inhibitory Concentration S. Marcescens GC1781 Sme-1 + Ampc [4] [µg/mL]	IC50 [1, 5] [nM]	IC50 [2, 6] [nM]	IC50 (class C enzyme AmpC; [7]) [nM]
O=C(O)C1=CS[C@@H]2/C(=C\c3cn4c(cnc5ccccc54)n3)C(=O)N12 [Example 6, (5R),(6Z)-6-(Imidazo[1,2-a]quinoxaline-2-ylmethylene)-7-oxo-4-thia-1-azabicyclo[3.2.0]hepto-2-ene-2-carboxylic acid, sodium salt]	2.5	210	350	1.2											
O=C(O)C1=CS[C@@H]2/C(=C/c3ccc4c(c3)N(Cc3ccccc3)C(=O)c3ccccc3O4)C(=O)N12 [Example 9, (5R,6E)-6-[(10-benzyl-ii-oxo-10,11-dihydrodibenzo[b,f][1,4]oxazepin-8-yl)methylene]-7-oxo-4-thia-1-azabicyclo[3.2.0]hept-2-ene-2-carboxylic Acid]	3.5	3600	220	4.5											
Cc1cccc2sc3nc(/C=C4/C(=O)N5C(C(=O)O)=CS[C@H]45)cn3c12 [Example 13]	8.7	102	228	1.6											
O=C(O)C1=CS[C@@H]2/C(=C\c3cn4c(nc5ccccc54)s3)C(=O)N12 [Example 17, (5R),(6Z)-7-oxo-6-([1,3]thiazolo[3,2-a]benzimidazol-2-ylmethylene)-4-thia-1-azabicyclo[3.2.0]hept-2-ene-2-carboxylic acid]					>64	2	2	64	>64	4	32	8			
O=C(O)C1=CS[C@@H]2/C(=C\c3cn4nc5c(c4s3)CCC5)C(=O)N12 [Example 18, (5R),(6Z)-6-(7,8-dihydro-6H-cyclopenta[3,4]pyrazolo[5,1-b][1,3]thiazol-2-ylmethylene)-7-oxo-64-thia-1-azabicyclo[3.2.0]hept-2-ene-2-carboxylic acid]					>64	4	2	>64	>64	4	64	4			
Cn1c2ccccc2n2cc(/C=C3/C(=O)N4C(C(=O)O)=CS[C@H]34)nc12 [Example 20, (5R),(6Z)-8-[(9-methyl-9H-imidazo[1,2-a]benzimidazol-2-yl)methylene]-7-oxo-4-thia-1-azabicyclo[3.2.0]hept-2-ene-2-carboxylic acid]					>64	2	4	>64	32	4	32	2			
O=C([O-])C1=CS[C@@H]2/C(=C\c3cc4c(s3)-c3cccnc3SC4)C(=O)N12.[Na+] [Example 21, (5R,6Z)-7-oxo-6-(4H-thieno[2′,3′:45]thiopyrano[2,3-b]pyridin-2-ylmethylene)-4-thia-1-azabicyclo[3.2.0]hept-2-ene-2-carboxylic acid (Sodium salt)]			210		>64	2	2	>64	32	4	64	2	11	580	3.7
COc1nc2nc(/C=C3/C(=O)N4C(C(=O)O)=CS[C@H]34)cn2c2c1CCC2 [Example 26, (5R,6Z)-6-[(5-methoxy-7,8-dihydro-6H-cyclopenta[e]imidazo[1,2-a]pyrimidin-2-yl)methylene]-7-oxo-4-thia-1-azabicyclo[3.2.0]hept-2-ene-2-carboxylic acid, sodium salt]	48	63	420	10											
O=C(O)C1=CS[C@@H]2/C(=C\c3cc4oc5c(n4n3)CCOC5)C(=O)N12 [Example 31, (5R,6Z)-6-(7,8-dihydro-5H-pyrano[4,3-d]pyrazolo[5,1-b][1,3]oxazol-2-ylmethylene)-7-oxo-4-thia-1-azabicyclo[3.2.0]hept-2-ene-2-carboxylic acid, sodium salt]	4.3	140	130	4											
CCOC(=O)N1CCc2c(oc3cc(/C=C4/C(=O)N5C(C(=O)[O-])=CS[C@H]45)nn23)C1.[Na+] [Example 33, (5R,6Z)-6-{[6-(ethoxycarbonyl)-5,6,7,8-tetrahydropyrazolo[5′,1′:2,3][1,3]oxazolo[5,4-c]pyridin-2-yl]methylene}-7-oxo-4-thia-1-1-azabicyclo[3.2.0]hept-2-ene-2-carboxylic acid, sodium salt]			160		>64	2	2	64	64	4	>64	2	10	360	140
